Source: BigSolDB 2.1

Conditions: in acetic acid

CO[C@H]1/C=C/O[C@@]2(C)Oc3c(C)c(O)c4c(O)c(c(/C=N/N5CCN(C6CCCC6)CC5)c(O)c4c3C2=O)NC(=O)/C(C)=C\C=C\[C@H](C)[C@H](O)[C@@H](C)[C@@H](O)[C@@H](C)[C@H](OC(C)=O)[C@@H]1C
Conditions	solubility (mole fraction)
278.15 K	0.0523
283.15 K	0.0558
288.15 K	0.0595
293.15 K	0.0632
297.15 K	0.067
303.15 K	0.0707
308.15 K	0.0755
313.15 K	0.0805
318.15 K	0.0858
323.15 K	0.0913
